{"source": "ChEMBL document CHEMBL1201862", "about": "“PubChem BioAssay data set” (2004)", "key": {"[1]": {"molecular_target": "Voltage-gated inwardly rectifying potassium channel KCNH2 (Homo sapiens, UniProt Q12809)", "sequence (Q12809 whole entry)": "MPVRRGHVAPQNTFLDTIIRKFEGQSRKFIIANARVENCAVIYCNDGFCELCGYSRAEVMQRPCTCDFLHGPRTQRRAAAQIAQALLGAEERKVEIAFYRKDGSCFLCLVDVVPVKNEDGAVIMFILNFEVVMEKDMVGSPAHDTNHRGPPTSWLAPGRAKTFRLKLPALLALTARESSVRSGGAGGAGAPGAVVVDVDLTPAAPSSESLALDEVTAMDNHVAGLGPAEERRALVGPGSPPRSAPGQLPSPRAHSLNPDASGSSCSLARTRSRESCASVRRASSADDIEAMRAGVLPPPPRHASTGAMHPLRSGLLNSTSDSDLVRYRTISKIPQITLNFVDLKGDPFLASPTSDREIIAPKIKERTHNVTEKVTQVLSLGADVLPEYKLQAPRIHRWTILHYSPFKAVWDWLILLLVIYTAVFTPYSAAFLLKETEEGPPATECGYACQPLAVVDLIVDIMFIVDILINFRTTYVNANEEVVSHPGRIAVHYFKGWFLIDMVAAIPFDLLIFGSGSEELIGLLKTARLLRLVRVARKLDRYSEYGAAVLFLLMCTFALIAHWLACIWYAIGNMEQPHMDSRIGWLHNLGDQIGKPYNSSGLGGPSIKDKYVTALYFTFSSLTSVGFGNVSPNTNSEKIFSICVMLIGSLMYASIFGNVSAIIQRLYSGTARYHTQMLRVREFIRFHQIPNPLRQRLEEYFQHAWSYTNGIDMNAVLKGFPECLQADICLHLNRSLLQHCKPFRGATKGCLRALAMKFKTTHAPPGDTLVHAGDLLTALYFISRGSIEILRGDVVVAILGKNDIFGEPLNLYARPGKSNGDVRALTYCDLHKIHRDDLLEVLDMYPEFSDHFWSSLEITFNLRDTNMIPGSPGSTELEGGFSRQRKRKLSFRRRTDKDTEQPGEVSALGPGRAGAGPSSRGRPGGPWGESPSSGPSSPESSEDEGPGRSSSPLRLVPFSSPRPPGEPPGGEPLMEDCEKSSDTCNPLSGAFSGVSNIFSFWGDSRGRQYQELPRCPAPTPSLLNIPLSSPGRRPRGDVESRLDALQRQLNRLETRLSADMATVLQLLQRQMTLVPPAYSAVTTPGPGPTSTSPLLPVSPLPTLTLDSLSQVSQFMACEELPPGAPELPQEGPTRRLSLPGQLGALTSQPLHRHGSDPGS", "settings": "Potency"}, "CAAX prenyl protease 2": {"molecular_target": "CAAX prenyl protease 2 (Homo sapiens, UniProt Q9Y256)", "sequence (Q9Y256 whole entry)": "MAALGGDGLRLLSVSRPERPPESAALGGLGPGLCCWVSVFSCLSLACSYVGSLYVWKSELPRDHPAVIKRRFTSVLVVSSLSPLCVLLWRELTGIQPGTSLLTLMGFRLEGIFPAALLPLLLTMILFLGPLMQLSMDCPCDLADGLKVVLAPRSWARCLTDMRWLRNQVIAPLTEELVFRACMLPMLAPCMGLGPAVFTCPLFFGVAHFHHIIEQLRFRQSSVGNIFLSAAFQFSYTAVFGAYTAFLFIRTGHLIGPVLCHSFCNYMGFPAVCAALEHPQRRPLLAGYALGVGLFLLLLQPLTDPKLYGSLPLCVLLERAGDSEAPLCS", "assay": "inhibition of Ras-converting CAAX protease Rce1 – biochemical, yeast membranes, quenched-peptide fluorescence, cherry-pick, dose response (AID 588849)"}, "Trypsin": {"molecular_target": "Trypsin (Sus scrofa, UniProt P00761)", "sequence (P00761 whole entry)": "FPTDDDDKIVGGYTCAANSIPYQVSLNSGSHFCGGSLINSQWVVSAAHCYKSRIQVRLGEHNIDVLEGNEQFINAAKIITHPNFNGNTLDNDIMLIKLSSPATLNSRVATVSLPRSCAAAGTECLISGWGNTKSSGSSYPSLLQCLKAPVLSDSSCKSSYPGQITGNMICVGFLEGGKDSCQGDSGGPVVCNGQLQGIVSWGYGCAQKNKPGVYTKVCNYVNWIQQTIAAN", "assay": "trypsin protease activity blockade – biochemical, quenched peptide fluorescence, cherry-pick, selectivity assay for Rce1 protease inhibitor project, dose response (AID 488789)"}, "HEK293": {"system": "HEK293", "assay": "cells", "assay_type": "functional, cell-based", "settings": "Homo sapiens"}, "[2]": {"molecular_target": "T1, Nuclear receptor subfamily 0 group B member 1 (Homo sapiens, UniProt P51843)", "T1 sequence (P51843 whole entry)": "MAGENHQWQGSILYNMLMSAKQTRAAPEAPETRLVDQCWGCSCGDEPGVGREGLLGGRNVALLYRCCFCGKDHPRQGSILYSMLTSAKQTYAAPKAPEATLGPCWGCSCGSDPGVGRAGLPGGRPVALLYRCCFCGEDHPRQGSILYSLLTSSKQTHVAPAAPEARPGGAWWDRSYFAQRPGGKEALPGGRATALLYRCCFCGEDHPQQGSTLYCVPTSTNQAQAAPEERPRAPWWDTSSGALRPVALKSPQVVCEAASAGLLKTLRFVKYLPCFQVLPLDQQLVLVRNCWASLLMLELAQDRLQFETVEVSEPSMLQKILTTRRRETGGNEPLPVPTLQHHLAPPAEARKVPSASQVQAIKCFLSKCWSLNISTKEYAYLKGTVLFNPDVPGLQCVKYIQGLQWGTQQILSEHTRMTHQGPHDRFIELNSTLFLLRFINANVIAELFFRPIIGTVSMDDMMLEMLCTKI", "assay": "Luminescence-based cell-based high throughput dose response assay for inhibitors of the orphan nuclear receptor subfamily 0, group B, member 1 (DAX1; NR0B1). [Related pubchem assays (depositor defined):AID504766, AID504790]", "assay_type": "functional"}, "A-375": {"system": "A-375", "assay": "proliferation inhibition in MITF-low A375 cells – cell-based, cherry-pick samples, set 2, counter-screen for MITF modulator project, dose response (AID 540335)", "assay_type": "functional", "settings": "Homo sapiens"}, "Hexokinase-1 [3]": {"molecular_target": "T2, Hexokinase-1 (Homo sapiens, UniProt P19367)", "T2 sequence (P19367 whole entry)": "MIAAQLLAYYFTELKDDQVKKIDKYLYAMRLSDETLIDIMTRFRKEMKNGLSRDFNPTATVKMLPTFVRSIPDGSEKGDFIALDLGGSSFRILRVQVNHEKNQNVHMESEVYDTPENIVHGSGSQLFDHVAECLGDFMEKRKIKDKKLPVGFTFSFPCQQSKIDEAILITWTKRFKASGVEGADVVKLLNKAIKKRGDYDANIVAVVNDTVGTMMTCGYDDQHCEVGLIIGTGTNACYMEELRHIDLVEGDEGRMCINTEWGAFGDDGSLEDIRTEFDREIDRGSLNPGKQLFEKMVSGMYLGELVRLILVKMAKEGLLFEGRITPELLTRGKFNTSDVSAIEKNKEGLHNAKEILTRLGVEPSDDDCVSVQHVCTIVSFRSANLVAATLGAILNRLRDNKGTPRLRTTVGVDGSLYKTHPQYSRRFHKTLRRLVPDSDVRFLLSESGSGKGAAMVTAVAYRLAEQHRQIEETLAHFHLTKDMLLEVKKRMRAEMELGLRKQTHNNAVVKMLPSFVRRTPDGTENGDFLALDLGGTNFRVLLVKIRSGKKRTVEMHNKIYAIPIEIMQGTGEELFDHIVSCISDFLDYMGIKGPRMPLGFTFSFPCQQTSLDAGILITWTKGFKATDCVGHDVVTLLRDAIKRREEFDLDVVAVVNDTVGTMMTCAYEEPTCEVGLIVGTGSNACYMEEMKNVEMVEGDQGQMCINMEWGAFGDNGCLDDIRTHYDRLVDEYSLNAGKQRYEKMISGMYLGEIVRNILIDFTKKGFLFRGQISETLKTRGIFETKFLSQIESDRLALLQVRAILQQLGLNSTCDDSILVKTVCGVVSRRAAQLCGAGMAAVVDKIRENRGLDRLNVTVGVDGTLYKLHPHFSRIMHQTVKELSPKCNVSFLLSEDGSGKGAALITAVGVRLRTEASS", "assay": "SAR analysis of small molecule inhibitors of hexokinase domain containing I (HKDC1) in the hexokinase 1 selectivity assay. [Related pubchem assays (depositor defined):AID493160, AID493190]", "assay_type": "functional"}, "Hexokinase HKDC1 [4]": {"molecular_target": "T3, Hexokinase HKDC1 (Homo sapiens, UniProt Q2TB90)", "T3 sequence (Q2TB90 whole entry)": "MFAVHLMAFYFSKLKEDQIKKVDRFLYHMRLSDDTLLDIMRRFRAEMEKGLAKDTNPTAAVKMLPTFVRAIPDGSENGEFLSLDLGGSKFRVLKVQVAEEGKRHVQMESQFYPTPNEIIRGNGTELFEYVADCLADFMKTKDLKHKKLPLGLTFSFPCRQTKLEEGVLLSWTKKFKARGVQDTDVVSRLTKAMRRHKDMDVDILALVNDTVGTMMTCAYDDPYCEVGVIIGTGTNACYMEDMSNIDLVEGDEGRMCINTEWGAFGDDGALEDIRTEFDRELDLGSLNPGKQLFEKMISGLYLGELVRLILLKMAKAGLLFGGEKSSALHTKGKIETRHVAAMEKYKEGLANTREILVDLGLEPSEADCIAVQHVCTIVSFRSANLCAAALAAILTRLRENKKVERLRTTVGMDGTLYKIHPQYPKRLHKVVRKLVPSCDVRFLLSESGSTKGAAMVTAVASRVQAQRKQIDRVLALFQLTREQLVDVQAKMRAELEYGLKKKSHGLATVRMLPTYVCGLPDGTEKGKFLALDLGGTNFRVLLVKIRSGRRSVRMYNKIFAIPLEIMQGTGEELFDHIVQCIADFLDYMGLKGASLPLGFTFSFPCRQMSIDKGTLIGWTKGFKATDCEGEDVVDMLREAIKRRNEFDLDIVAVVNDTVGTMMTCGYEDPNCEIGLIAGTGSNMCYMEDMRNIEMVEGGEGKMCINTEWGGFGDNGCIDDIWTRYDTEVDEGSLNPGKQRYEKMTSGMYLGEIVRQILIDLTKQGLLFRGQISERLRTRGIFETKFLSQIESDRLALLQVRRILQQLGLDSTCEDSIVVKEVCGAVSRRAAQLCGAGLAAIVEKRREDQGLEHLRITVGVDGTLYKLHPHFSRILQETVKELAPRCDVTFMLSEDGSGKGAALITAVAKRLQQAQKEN", "assay": "SAR analysis of small molecule inhibitors of hexokinase domain containing I (HKDC1). [Related pubchem assays (depositor defined):AID493160, AID493190]", "assay_type": "functional"}, "Hexokinase HKDC1 [5]": {"molecular_target": "T3, Hexokinase HKDC1", "assay": "analog inhibition of human HKDC1 activity – biochemical, set 2, SAR follow-up (AID 588355)", "assay_type": "functional"}, "Hexokinase-1 [6]": {"molecular_target": "T2, Hexokinase-1", "assay": "hexokinase 1 activity inhibitors, potency – biochemical, set 2, resazurin fluorescence coupled readout, selectivity assay for HKDC1 inhibitor project, SAR follow-up (AID 588356)", "assay_type": "functional"}, "[7]": {"molecular_target": "T4, Short transient receptor potential channel 4 (Mus musculus, UniProt Q9QUQ5)", "T4 sequence (Q9QUQ5 whole entry)": "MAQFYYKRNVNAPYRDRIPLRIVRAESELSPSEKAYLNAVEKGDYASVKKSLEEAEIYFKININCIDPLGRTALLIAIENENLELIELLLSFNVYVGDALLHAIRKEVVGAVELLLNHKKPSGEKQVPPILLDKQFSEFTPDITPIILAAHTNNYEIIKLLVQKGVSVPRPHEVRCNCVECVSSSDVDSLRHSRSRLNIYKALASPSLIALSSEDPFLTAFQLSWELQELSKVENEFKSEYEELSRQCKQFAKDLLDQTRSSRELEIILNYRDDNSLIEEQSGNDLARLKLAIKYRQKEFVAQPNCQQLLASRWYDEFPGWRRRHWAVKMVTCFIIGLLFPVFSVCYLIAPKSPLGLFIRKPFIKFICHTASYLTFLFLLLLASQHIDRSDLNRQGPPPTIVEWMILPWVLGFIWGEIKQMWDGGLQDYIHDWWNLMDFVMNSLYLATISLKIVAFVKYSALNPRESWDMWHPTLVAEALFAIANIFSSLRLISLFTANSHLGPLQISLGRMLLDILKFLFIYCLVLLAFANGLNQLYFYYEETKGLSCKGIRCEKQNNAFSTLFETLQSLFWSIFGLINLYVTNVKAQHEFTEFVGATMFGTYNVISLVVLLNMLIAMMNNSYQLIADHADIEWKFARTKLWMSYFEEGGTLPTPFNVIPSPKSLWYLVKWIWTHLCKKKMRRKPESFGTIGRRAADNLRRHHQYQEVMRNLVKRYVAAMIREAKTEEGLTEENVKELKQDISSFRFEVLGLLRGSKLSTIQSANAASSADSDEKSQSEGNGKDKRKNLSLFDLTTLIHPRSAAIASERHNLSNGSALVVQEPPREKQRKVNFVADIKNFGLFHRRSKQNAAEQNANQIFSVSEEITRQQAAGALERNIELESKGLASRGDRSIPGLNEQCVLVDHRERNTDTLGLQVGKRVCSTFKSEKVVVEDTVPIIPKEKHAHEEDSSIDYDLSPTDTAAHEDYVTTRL", "assay": "potency of mouse TRPC4 calcium flux blockers – cell-based, HEK293 TRPC4/mu-opioid, DAMGO stimulus, Fluo-4, dose response (AID 492994)", "assay_type": "functional"}, "[8]": {"molecular_target": "T4, Short transient receptor potential channel 4", "assay": "SAR Analysis for the identification of selective inhibits of the transient receptor potential cation channel C4 (TRPC4): Automated Electrophysiology_2. [Related pubchem assays (depositor defined):AID2256]", "assay_type": "functional"}}, "note": "The source made the active and inactive calls.", "data": [{"smiles": "CCCN(CCC)C1Cc2cc(OC)c(OC)cc2C1", "values": [{"measurement": "AC50", "setting": "[1]", "value": "14.1 µM (inconclusive)"}]}, {"smiles": "COc1ccc(/C=C\\c2cc(OC)c(OC)cc2CC[N+](C)(C)C)cc1OC", "values": [{"measurement": "AC50", "setting": "CAAX prenyl protease 2", "value": "13.2 µM (active)"}, {"measurement": "AC50", "setting": "Trypsin", "value": "11.6 µM (active)"}]}, {"smiles": "COc1cccc(CNC(=O)CN(C)S(=O)(=O)c2ccc(Br)s2)c1", "values": [{"measurement": "IC50", "setting": "HEK293", "value": "24.6 µM (inactive)"}, {"measurement": "IC50", "setting": "[2]", "value": "> 67.5 µM (inactive)"}]}, {"smiles": "Cc1ccc(-n2cc(CNCCCn3cccn3)c(-c3cccc(C)c3)n2)cc1", "values": [{"measurement": "AC50", "setting": "A-375", "value": "24.3 µM (active)"}]}, {"smiles": "O=C(Nc1cccc(C(F)(F)F)c1)c1cccc(NC(=O)c2ccc3ccccc3n2)c1", "values": [{"measurement": "IC50", "setting": "Hexokinase-1 [3]", "value": "> 80 µM (inactive)"}, {"measurement": "IC50", "setting": "Hexokinase HKDC1 [4]", "value": "> 80 µM (inactive)"}]}, {"smiles": "COc1ccc(NC2c3ccccc3C(=O)N2c2ccccc2C)cc1", "note": "(configuration not stated)", "values": [{"measurement": "IC50", "setting": "Hexokinase HKDC1 [5]", "value": "> 80 µM (inactive)"}, {"measurement": "IC50", "setting": "Hexokinase-1 [6]", "value": "> 80 µM (inactive)"}]}, {"smiles": "Cc1cc(N2CCCCCC2)nc2ccc(F)cc12", "values": [{"measurement": "IC50", "setting": "[7]", "value": "3.99 µM (active)"}, {"measurement": "IC50", "setting": "[8]", "value": "1.63 µM (active)"}]}]}
